Measured values reported in patent EP1534672B1, “RETINOL DERIVATIVES, THEIR USE IN THE TREATMENT OF CANCER AND FOR POTENTIATING THE EFFICACY OF OTHER CYTOTOXIC AGENTS” (priority 2002, dated 2004).
Values joined by “and” are separate entries in the source; they are usually repeats but may differ in a detail not shown here. Identical values can stand only once. Like-named read-outs stand apart in the source and are kept apart here. Marks after values point to notes of the source that are not given here.

Tests used:
[1] = single dose i.p. toxicity study in rats
Method: (§1) A single dose i.p. toxicity study in rats was carried out. […] The minimal lethal dose is thus above 100 mg/kg body weight for these compounds.

[2] = system: Human Ovary Adenocarcinoma Cell Line SKOV-3; experiment: Drug cytotoxicity testing (viable cell count, trypan blue exclusion, cell growth inhibition); type: cell-based; conditions: alone or in formulation at molar ratio 1:6
Method: MDA-MB-231 cells were propagated in MEM culture medium with 2 mM L-glutamine, 10% heat-inactivated fetal bovine serum (FBS) and antibiotics. DU 145 cells were cultured in MEM culture medium containing 2 mM L-glutamine, 1 mM sodium pyruvate, 10% FBS and antibiotics. SKOV-3 cells were cultured in McCoy's 5A culture medium, supplemented with 1,5 mM L-glutamine, 10% FBS and antibiotics. A549 cells were cultured in Ham's F-12 culture medium with 1 mM L-glutamine, 10% FBS and antibiotics. All media and supplements were purchased from Sigma-Aldrich (St.Louis, MO, USA). Cell propagation of all lines was carried out in Falcon™ 25 cm^2 cultivation flasks (Becton Dickinson Labware).
Drug cytotoxicity testing was carried out with using Falcon™ 96-well cultivation plates for adherent cells (Becton Dickinson Labware). These plates were seeded by cells either at 12 × 10^3 MDA-MB-231 cells/well, or at 12 × 10^3 DU 145 cells/well, or at 14 × 10^3 SKOV-3 cells/well, or at 10 × 10^3 A549 cells/well in a volume of 200 µL/well.
The cell cultures in cultivation plates were allowed to adhere for 24 hour of incubation. On day 1 after cell seeding, 2 µL solutions of the drugs to be tested in medium with 5% FBS was added to the cultures. In the control cultures, 2 µL of medium with 5% FBS was added as solvent control. The cells were incubated for 2 consecutive days. At the end of the incubation period adherent cells were detached by trypsinization and the number of viable cells was counted using trypan blue exclusion test and a hemocytometer. All data were derived from an average of three determinations each in six replicates. The results were expressed as mean cell number ± SE and the differences between control and test series evaluated by means of Student's t-test. The drug cytotoxicity was evaluated based on the extent of cell growth inhibition. The cell growth inhibition of the tested drugs was calculated as follows: Cell growth inhibition,% = (Control-TestSeries)/(Control) × 100 [formula]

[3] = system: Human Breast Adenocarcinoma Cell Line MDA-MB-231; experiment: as above; type: cell-based
Summary of the method: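 A549 cells (10 × 10^3/well) and MDA-MB-231 cells (12 × 10^3/well) were left to adhere for 24 h, then exposed to drugs in medium with 5% FBS for 2 days. Viable cells were counted by trypan blue exclusion after trypsinization. Growth inhibition (%) = (control − test)/control × 100, from three determinations in six replicates each.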

[4] = rat, in vivo, ip
Method: as §1

[5] = system: Human Lung Carcinoma Cell Line A549; experiment: Drug cytotoxicity testing (viable cell count, trypan blue exclusion, cell growth inhibition); type: cell-based
[6] = cytotoxic drug alone 10^-8 mol/L, average of positive controls in medium with 5% FBS, normal saline and saline with 2,3 mM CaCl2
[7] = cytotoxic drug alone 10^-9 mol/L, average of positive controls in medium with 5% FBS, normal saline and saline with 2,3 mM CaCl2
[8] = compound alone 10^-7 mol/L, in B (normal saline)
[9] = compound alone 10^-8 mol/L, in B (normal saline)
[10] = compound alone 10^-9 mol/L, in B (normal saline)
[11] = sodium salt, range 10^-9 to 10^-7 M

Compound: CC1=C(/C=C/C(C)=C/C=C/C(C)=C/C(=O)N[C@@H](CS(=O)O)C(=O)O)C(C)(C)CCC1 (stereo in doubt) [I-2, N-(all-trans-Retinoyl)-L-cysteinesulfinic acid]
- minimal lethal dose [1]: above 100 mg/kg body weight

Compound: CC(=O)O[C@H]1C(=O)[C@@]2(C)[C@H]([C@H](OC(=O)c3ccccc3)[C@]3(O)C[C@H](OC(=O)[C@H](O)[C@@H](NC(=O)c4ccccc4)c4ccccc4)C(C)=C1C3(C)C)[C@]1(OC(C)=O)CO[C@@H]1C[C@@H]2O [Paclitaxel, paclitaxel, reference compound]
- inhibition at 0.1 µM ([2]; Homo sapiens, SK-OV-3, cytotoxic drug 10^-7 mol/L (100 nM), working solutions in medium with 5% FBS): 71.1%
- inhibition at 0.01 µM ([2]; Homo sapiens, SK-OV-3, cytotoxic drug 10^-8 mol/L, working solutions in medium with 5% FBS): 59.9%
- inhibition at 0.001 µM ([2]; Homo sapiens, SK-OV-3, cytotoxic drug 10^-9 mol/L, working solutions in medium with 5% FBS): 24.8%
- IC50 ([2]; Homo sapiens, SK-OV-3, as concentration of cytotoxic drug, medium with 5% FBS, calculated from three concentrations, read-out: IC50 mol/L (a)): 4.5 nM
- Tumor Cell Number, × 10^3 ([2]; cytotoxic drug 10^-7 mol/L (100 nM), working solutions in medium with 5% FBS): 14.1 ± 0.98 × 10^3
- Tumor Cell Number, × 10^3 ([2]; cytotoxic drug 10^-7 mol/L (100 nM), working solutions in medium with 5% FBS, listed as paclitaxel): 14.6 ± 0.82 × 10^3
- Tumor Cell Number, × 10^3 ([2]; cytotoxic drug 10^-8 mol/L, working solutions in medium with 5% FBS): 19.9 ± 1.45 × 10^3
- Tumor Cell Number, × 10^3 ([2]; cytotoxic drug 10^-9 mol/L, working solutions in medium with 5% FBS): 37.3 ± 1.80 × 10^3
- inhibition at 0.01 µM ([3]; Homo sapiens, MDA-MB-231, cytotoxic drug alone 10^-8 mol/L, average of positive controls in medium with 5% FBS, normal saline and saline with 2,3 mM CaCl2, read-out: Cell Growth Inhibition, %): 43.3%
- inhibition at 0.001 µM ([3]; Homo sapiens, MDA-MB-231, cytotoxic drug alone 10^-9 mol/L, average of positive controls in medium with 5% FBS, normal saline and saline with 2,3 mM CaCl2, read-out: Cell Growth Inhibition, %): 27.3%
- IC50 ([3]; Homo sapiens, MDA-MB-231, cytotoxic drug alone, average of positive controls, calculated from three concentrations, read-out: IC50 mol/L (a)): 17 nM
- Tumor Cell Number, × 10^3 ([3]; cytotoxic drug alone 10^-7 mol/L, average of positive controls in medium with 5% FBS, normal saline and saline with 2,3 mM CaCl2): 16.0±0.72 × 10^3 and 16.6±0.86 × 10^3
- Cell Growth Inhibition, % [3, 6]: 43.9* %
- Tumor Cell Number, × 10^3 [3, 6]: 32.2±1.60 × 10^3 and 32.8±1.07 × 10^3
- Cell Growth Inhibition, % [3, 7]: 27.7* %
- Tumor Cell Number, × 10^3 [3, 7]: 41.3±1.93 × 10^3 and 42.3±1.55 × 10^3

Compound: COC(=O)[C@H](CS(=O)(=O)O)NC(=O)\C=C(C)/C=C/C=C(C)/C=C/C1=C(C)CCCC1(C)C [compound II-1a, N-(13-cis-retinoyl)-L-cysteic acid methyl ester]
- minimal lethal dose [4]: above 100 mg/kg body weight
- mortality ([4]; 100 mg/kg): did not produce mortality
- inhibition at 0.1 µM ([5]; Homo sapiens, A549, compound alone 10^-7 mol/L, in A (saline with […] CaCl2)): 34.4%
- inhibition at 0.1 µM ([5]; Homo sapiens, A549, compound alone 10^-7 mol/L, in B (normal saline)): 25.6%
- increase in cell growth inhibition in A over B at 0.1 µM ([5]; Homo sapiens, A549, compound alone 10^-7 mol/L, read-out: Cell growth inhibition in A compared to that in B was increased by): 11.8%
- inhibition at 0.01 µM ([5]; Homo sapiens, A549, compound alone 10^-8 mol/L, in A (saline with […] CaCl2)): 26.9%
- inhibition at 0.01 µM ([5]; Homo sapiens, A549, compound alone 10^-8 mol/L, in B (normal saline)): 15.6%
- increase in cell growth inhibition in A over B at 0.01 µM ([5]; Homo sapiens, A549, compound alone 10^-8 mol/L, read-out: Cell growth inhibition in A compared to that in B was increased by): 13.4%
- inhibition at 0.001 µM ([5]; Homo sapiens, A549, compound alone 10^-9 mol/L, in A (saline with […] CaCl2)): 20.4%
- inhibition at 0.001 µM ([5]; Homo sapiens, A549, compound alone 10^-9 mol/L, in B (normal saline)): 7.2%
- increase in cell growth inhibition in A over B at 0.001 µM ([5]; Homo sapiens, A549, compound alone 10^-9 mol/L, read-out: Cell growth inhibition in A compared to that in B was increased by): 14.3%
- number of viable cells [5, 8]: 41.5 ± 1.80 × 10^3
- number of viable cells [5, 9]: 47.1 ± 1.43 × 10^3
- number of viable cells [5, 10]: 51.8 ± 2.48 × 10^3
- cell growth inhibition in (A) compared to compound in B [5, 11]: ~12%
- cell growth inhibition reached on increase of the concentration, in (B) ([5]; sodium salt, range 10^-9 to 10^-7 M, dilution in normal saline (B)): ~26%
- inhibition at 0.1 µM ([3]; Homo sapiens, MDA-MB-231, 48 h, compound alone, final concentration 10^-7 mol/L, working solutions in MEM with 5% FBS, two days, read-out: cell growth inhibition): 46.5%
- inhibition at 0.01 µM ([3]; Homo sapiens, MDA-MB-231, 48 h, compound alone, final concentration 10^-8 mol/L, working solutions in MEM with 5% FBS, two days, read-out: cell growth inhibition): 44.1%
- inhibition at 0.001 µM ([3]; Homo sapiens, MDA-MB-231, 48 h, compound alone, final concentration 10^-9 mol/L, working solutions in MEM with 5% FBS, two days, read-out: cell growth inhibition): 38.8%
- inhibition at 0.1 µM ([3]; Homo sapiens, MDA-MB-231, compound alone 10^-7 mol/L, in A (saline with […] CaCl2), read-out: cell growth inhibition): 48.9%
- inhibition at 0.1 µM ([3]; Homo sapiens, MDA-MB-231, compound alone 10^-7 mol/L, in B (normal saline), read-out: cell growth inhibition): 40.5%
- inhibition at 0.1 µM ([3]; Homo sapiens, MDA-MB-231, compound alone 10^-7 mol/L, read-out: Cell growth inhibition in A compared to that in B was increased by): 14.1%
- inhibition at 0.01 µM ([3]; Homo sapiens, MDA-MB-231, compound alone 10^-8 mol/L, in A (saline with […] CaCl2), read-out: cell growth inhibition): 41.7%
- inhibition at 0.01 µM ([3]; Homo sapiens, MDA-MB-231, compound alone 10^-8 mol/L, in B (normal saline), read-out: cell growth inhibition): 31.2%
- inhibition at 0.01 µM ([3]; Homo sapiens, MDA-MB-231, compound alone 10^-8 mol/L, read-out: Cell growth inhibition in A compared to that in B was increased by): 15.2%
- inhibition at 0.001 µM ([3]; Homo sapiens, MDA-MB-231, compound alone 10^-9 mol/L, in A (saline with […] CaCl2), read-out: cell growth inhibition): 35.8%
- inhibition at 0.001 µM ([3]; Homo sapiens, MDA-MB-231, compound alone 10^-9 mol/L, in B (normal saline), read-out: cell growth inhibition): 23%
- inhibition at 0.001 µM ([3]; Homo sapiens, MDA-MB-231, compound alone 10^-9 mol/L, read-out: Cell growth inhibition in A compared to that in B was increased by): 16.6%
- number of viable cells [3, 8]: 34.1 ± 1.97 × 10^3
- number of viable cells [3, 9]: 39.4 ± 2.28 × 10^3
- number of viable cells [3, 10]: 44.1 ± 2.24 × 10^3
- number of viable cells ([3]; compound alone, final concentration 10^-7 mol/L, working solutions in MEM with 5% FBS, two days): 31.3 ± 2.15 × 10^3
- number of viable cells ([3]; compound alone, final concentration 10^-8 mol/L, working solutions in MEM with 5% FBS, two days): 32.7 ± 2.06 × 10^3
- number of viable cells ([3]; compound alone, final concentration 10^-9 mol/L, working solutions in MEM with 5% FBS, two days): 35.8 ± 2.50 × 10^3
- cell growth inhibition in (A) compared to compound in B [3, 11]: ~14%
